Assay results reported in patent publication US20250034116A1, “1,4-DIHETEROCYCLIC SUBSTITUTED AROMATIC RING OR AROMATIC HETEROCYCLIC COMPOUND AND USE THEREOF” (BeBetter Med Inc., priority 2022, published 2025).

Tested on: CYP enzymes in human liver microsomes (HLM)
Assay: Inhibition of 20-HETE production in human liver microsomes (HLM)
Type: biochemical
Details: not given
Protocol: Experimental principle: The inhibitory activity of 20-HETE production is evaluated by testing the inhibitory effects of the compound on human liver microsomes (HLM), rat liver microsomes (RLM), mouse liver microsomes (MLM), or […] CYP4 subtype enzymes (CYP4F2). This assay employs HLM, RLM, or MLM along with recombinant CYP4F2 (rCYP4F2) and recombinant CYP4A11 (rCYP4A11), which are […] CYP4 subtype enzymes, to detect the effects of the test compound at different concentrations on the metabolic rate of enzyme-specific substrates, to determine the inhibitory effects of the test compound on CYP enzymes in HLM, RLM, or MLM.
Experimental methods: Dissolve the test compound in DMSO, and subsequently dilute it with an acetonitrile and DMSO mixture (3:1). Add 2 μl of varying concentrations of the test compound and 100 μl of potassium phosphate buffer containing either liver microsomes or recombinant enzymes to a 96-well plate. After mixing well, transfer 30 μl to another well (in duplicate), add 15 μl of 400 μM substrate solution, and mix well again. Preheat at 37° C. for 10 minutes, and then add 15 μl of 6 mM NADPH and incubate at 37° C. for 25 minutes. After 25 minutes, add 160 μl of acetonitrile solution (containing 0.1 μg/ml internal standard) to stop the reaction. Mix well, centrifuge at 3500 g for 15 minutes, and then analyze the supernatant using LC-MS/MS.
Plot the compound concentration on the x-axis and the inhibition rate on the y-axis to draw the curve. Use GraphPad Prism 5 software to fit the curve and calculate the IC50. The formula is Y=Bottom+(Top−Bottom)/(1+10^((Log IC50−X)×HillSlope)). X represents the logarithmic concentration of the inhibitor, and Y represents the relative enzyme activity at a given inhibitor concentration (relative to the condition without the inhibitor).
Calculate the inhibition percentages at concentrations of 1000 nM, 500 nM, or 100 nM as well as the half-maximal inhibitory concentration (IC50) of the test compound from the above experiment.

IC50 [nM] | Compound
26.2 | O=C(C1CCN(c2ccc(-c3cn[nH]c3)cc2F)CC1)N1Cc2ccccc2C1 [Compound 156, (1-(2-fluoro-4-(1H-pyrazol-4-yl)phenyl)piperidin-4-yl)(isoindolin-2-yl) methanone]
21.9 | O=S(=O)(c1ccc(F)cc1)N1CCN(c2ccc(-c3cn[nH]c3)cc2F)CC1 [Compound 134, 1-(2-fluoro-4-(1H-pyrazol-4-yl)phenyl)-4-((4-fluorophenyl)sulfonyl)piperazine]
17.6 | O=C(C1CCN(c2ccc(-c3cn[nH]c3)cc2)CC1)N1Cc2cccnc2C1 [Compound 157, (1-(4-(1H-pyrazol-4-yl)phenyl)piperidin-4-yl)(5,7-dihydro-6H-pyrrolo[3,4-b]pyridin-6-yl) methanone]
11.7 | N#Cc1ccc2c(c1)CN(C(=O)C1CCN(c3ccc(-c4cn[nH]c4)cc3)CC1)C2 [Compound 158, 2-(1-(4-(1H-pyrazol-4-yl)phenyl)piperidine-4-carbonyl) isoindoline-5-carbonitrile]
23.2 | O=C1C2CCCC2CN1CC1CCN(c2ccc(-c3cn[nH]c3)cc2F)CC1 (stereo not shown) [Compound 160, 2-((1-(2-fluoro-4-(1H-pyrazol-4-yl)phenyl)piperidin-4-yl)methyl) hexahydrocyclopenta[c]pyrrol-1(2H)-one]

Same assay, conditions: 100 nM

HLM (% inh @ 100 nM) [%] | Compound
82.28 | CC(C)(O)CC(=O)N1CCC(c2ccc(-c3cn[nH]c3)cc2F)CC1 [Compound 151, 1-(4-(2-fluoro-4-(1H-pyrazol-4-yl)phenyl)piperidin-1-yl)-3-hydroxy-3-methylbutan-1-one]
88.13 | O=C(N1CCC(c2ccc(-c3cn[nH]c3)cc2)CC1)C1(O)CCCCC1 [Compound 139, (4-(4-(1H-pyrazol-4-yl)phenyl)piperidin-1-yl)(1-hydroxycyclohexyl) methanone]
85.60 | O=C(C1CCCC(O)C1)N1CCC(c2ccc(-c3cn[nH]c3)cc2F)CC1 (stereo not shown) [Compound 148, (4-(2-fluoro-4-(1H-pyrazol-4-yl)phenyl)piperidin-1-yl)(3-hydroxycyclohexyl) methanone]
84.74 | O=C(C1CCCCC1O)N1CCC(c2ccc(-c3cn[nH]c3)cc2F)CC1 (single isomer, unassigned) [Compound 149a, (4-(2-fluoro-4-(1H-pyrazol-4-yl)phenyl)piperidin-1-yl)(2-hydroxycyclohexyl) methanone]

Same assay, conditions: 500 nM

HLM (% inh @ 500 nM) [%] | Compound
30.17 | O=C(C1CCN(c2ccc(-c3cn[nH]c3)cc2)CC1)N1CCNCC1 [Compound 51, (1-(4-(1H-pyrazol-4-yl)phenyl)piperidin-4-yl)(piperazin-1-yl) methanone]
−24.84 | O=C1CCCN1CC1CCN(c2ncc(-c3cn[nH]c3)cn2)CC1 [Compound 23, 1-((1-(5-(1H-pyrazol-4-yl)pyrimidin-2-yl)piperidin-4-yl)methyl)pyrrolidine-2-one]
41.24 | COc1cc(-c2cn[nH]c2)ccc1N1CCC(CN2CCCC2=O)CC1 [Compound 14, 1-((1-(2-methoxy-4-(1H-pyrazol-4-yl)phenyl)piperidin-4-yl)methyl)pyrrolidin-2-one]
41.22 | NC(=O)c1cc(-c2cn[nH]c2)ccc1N1CCC(CN2CCCC2=O)CC1 [Compound 16, 2-(4-((2-oxopyrrolidin-1-yl)methyl)piperidin-1-yl)-5-(1H-pyrazol-4-yl)benzamide]
40.01 | O=C1CCCN1CC1CCN(c2ccc(-c3cn[nH]c3)cn2)CC1 [Compound 21, 1-((1-(5-(1H-pyrazol-4-yl)pyridin-2-yl)piperidin-4-yl)methyl)pyrrolidin-2-one]
36.16 | CN(C)c1cc(-c2cn[nH]c2)ccc1N1CCC(CN2CCCC2=O)CC1 [Compound 20, 1-((1-(2-(dimethylamino)-4-(1H-pyrazol-4-yl)phenyl)piperidin-4-yl)methyl)pyrrolidin-2-one]
64.15 | O=C1CCCN1Cc1ccc2c(c1)CN(c1ccc(-c3cn[nH]c3)cc1)C2 [Compound 126, 1-(2-(4-(1H-pyrazol-4-yl)phenyl)isoindolin-5-ylmethyl)pyrrolidin-2-one]
